Test [1] relates to phosphorylation of Retinoblastoma Protein (pRb Ser807/811 or Ser780) in T47D cells. The test is described as follows: Inhibition of phosphorylation of retinoblastoma protein (pRb) in T47D cell (ELISA). It is filed as cell-based, human. The conditions noted are these: Homo sapiens, T47D, read-out: Phospho T47D Ser807 IC50, pRb Ser807 phosphorylation, T47D cells. As for the experimental part: T47D breast cancer cells from American Type Culture Collection (ATCC, HTB-133) were plated at 40,000 cells/well in 96-well plates, and were incubated in RPMI 1640 medium (Gibco, 31800105) with 10% Fetal Bovine Serum (FBS, Biowest, FB-1058). Cells were then allowed to adhere overnight at 37° C., 5% CO2. The following day, compounds were titrated in a 3-fold dilution scheme, and the highest compound concentration tested was […]. After 24 hours incubation with compounds, cells were lysed in ice-cold lysis buffer containing phosphatase inhibitor cocktail and 1 mM PMSF. Cell lysates (50 μL/well) were then transferred to ELISA plates (pRb Ser807/811 ELISA kit, Cell Signaling, 13152 or pRb Ser780 ELISA kit, Cell Signaling, 13016)). Plates were incubated overnight at 4° C., with constant slow speed shaking. After incubation, plates were washed following manufacturer's recommendations, and then 100 μL reconstituted detection antibody was added to each well and incubated for 1 hour at 37° C. After incubation, plates were washed, and then 100 μL reconstituted HRP-linked secondary antibody was added to each well and incubated for 30 mins at 37° C. After incubation, plates were washed. Then, 100 μL TMB substrate was added to each well and incubated for 10 min at 37° C. or 30 min at 25° C. Finally, 100 μL of STOP solution was added to each well and mixed gently for a few seconds. Plates were read on the Envision plate reader (PerkinElmer, 2104-0010) using the 96-well […] mode. IC50 values were calculated using 4 parameter sigmoidal dose-response model of Xlfit5/GraphPad Prism 5 software.
Background: In an ELISA, binding on a coated surface is turned into a signal by an enzyme label.

Test [2] concerns the target T1, CDK6/CyclinD3 (Homo sapiens, UniProt Q00534).
T1 construct: purchased Carna 04-107
In words: Assay for inhibition of CDK6/CyclinD3 (Caliper microfluidic kinase assay). It is filed as biochemical. In outline: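 Caliper mobility-shift readout of FAM-labelled peptide (FL-34, 1 μM) phosphorylation by 2 nM CDK6/CyclinD3 at 300 μM ATP in HEPES pH 7.5 buffer with MgCl2, DTT; 3 h at room temperature, EDTA stop. IC50 from 4-parameter sigmoidal fit.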

Test [3] has as its target T2, CDK2/CyclinE1 (Homo sapiens, UniProt P24941).
T2 construct: purchased SignalChem C29-18G
The test is described as follows: Assay for inhibition of CDK2/CyclinE1 (Caliper microfluidic kinase assay). It is filed as biochemical. The conditions noted are these: read-out: CDK2 IC50. A digest of the protocol:
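Caliper microfluidic mobility-shift assay: 5 nM CDK2/CyclinE1, 100 μM ATP, 5 μM FL-18 peptide (5-FAM-QSPKKG-NH2) in pH 7.5 HEPES buffer with MgCl2, DTT, BSA, Triton X-100. Incubated 3 hours at room temperature, EDTA-stopped; IC50 from 4-parameter sigmoidal fit.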

Test [4] addresses T3, CDK4/CyclinD1 (Homo sapiens, UniProt P11802).
T3 construct: purchased Thermofisher PR8064A
The test is described as follows: Assay for inhibition of CDK4/CyclinD1 (Caliper microfluidic kinase assay). The class given is biochemical. A digest of the protocol: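 Caliper microfluidic mobility-shift assay tracking phosphorylation of 1 μM FL-34 peptide by 1 nM CDK4/CyclinD1 with 200 μM ATP in HEPES pH 7.5 buffer with 10 mM MgCl2. Reaction ran 3 h at room temperature, was stopped with EDTA, and IC50 came from a 4-parameter sigmoidal fit.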

Test [5] deals with T47D breast cancer cells. In words: Anti-proliferation assay in T47D cell (Cyquant, day 6). The conditions noted are these: Homo sapiens, T47D, anti-proliferation, T47D cells; read-out: T47D IC50. The class given is cell-based, human. A digest of the protocol:
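Cells were grown in RPMI 1640 with 10% FBS at 37 °C and dosed the day after plating at ten concentrations, 10 μM to 0.51 nM in 3-fold steps. CyQuant fluorescence (ex 485/em 535 nm) was read on day 6. IC50 was fitted from baseline-subtracted viability curves, with the baseline read after overnight culture.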

Molecules are shown by their SMILES. Read-outs that look alike come from different tables or passages of the source. Some results are limits rather than exact numbers.

T1 sequence (Q00534 whole entry): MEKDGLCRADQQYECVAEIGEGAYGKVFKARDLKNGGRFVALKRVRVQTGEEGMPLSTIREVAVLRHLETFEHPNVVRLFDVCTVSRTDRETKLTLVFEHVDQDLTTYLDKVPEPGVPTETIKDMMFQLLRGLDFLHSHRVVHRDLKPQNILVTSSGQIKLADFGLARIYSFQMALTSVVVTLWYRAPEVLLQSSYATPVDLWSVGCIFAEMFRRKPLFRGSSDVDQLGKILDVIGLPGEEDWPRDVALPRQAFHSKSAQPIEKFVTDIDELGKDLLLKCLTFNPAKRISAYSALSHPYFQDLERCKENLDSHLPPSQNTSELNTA
T1 sequence (P30281 whole entry partner): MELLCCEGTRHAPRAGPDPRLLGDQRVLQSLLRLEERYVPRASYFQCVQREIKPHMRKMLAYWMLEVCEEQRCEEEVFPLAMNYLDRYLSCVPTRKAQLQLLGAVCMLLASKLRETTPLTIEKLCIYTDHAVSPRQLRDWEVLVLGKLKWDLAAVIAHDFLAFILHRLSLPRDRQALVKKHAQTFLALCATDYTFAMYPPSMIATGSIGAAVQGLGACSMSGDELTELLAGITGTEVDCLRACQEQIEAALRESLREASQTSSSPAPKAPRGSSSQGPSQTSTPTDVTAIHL
T3 sequence (P11802 whole entry): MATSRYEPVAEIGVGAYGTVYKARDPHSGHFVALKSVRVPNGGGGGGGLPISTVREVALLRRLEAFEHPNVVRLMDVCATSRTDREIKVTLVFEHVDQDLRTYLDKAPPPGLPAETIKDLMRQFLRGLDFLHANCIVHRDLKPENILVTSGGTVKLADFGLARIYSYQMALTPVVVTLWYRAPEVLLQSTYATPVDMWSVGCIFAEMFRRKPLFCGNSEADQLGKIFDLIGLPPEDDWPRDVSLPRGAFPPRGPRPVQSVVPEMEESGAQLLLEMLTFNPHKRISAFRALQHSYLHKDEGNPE
T3 sequence (P24385 whole entry partner): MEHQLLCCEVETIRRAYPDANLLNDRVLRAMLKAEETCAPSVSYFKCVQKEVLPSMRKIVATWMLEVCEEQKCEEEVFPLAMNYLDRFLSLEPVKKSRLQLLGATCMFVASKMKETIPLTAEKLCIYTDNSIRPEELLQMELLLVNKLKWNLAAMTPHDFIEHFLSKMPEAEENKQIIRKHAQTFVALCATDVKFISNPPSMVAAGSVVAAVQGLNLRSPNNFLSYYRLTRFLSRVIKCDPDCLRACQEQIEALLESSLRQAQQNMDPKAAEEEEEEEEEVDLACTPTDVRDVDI

As for `CC(C)c1cnn2ccc(-c3nc(Nc4ccc(N5CCN(CCO)CCC5=O)cn4)ncc3F)cc12` [Synthetic Example 52], the IC50 – broadly, the midpoint of a concentration-inhibition curve – in test [1] is less than 100 nM; in test [2] (CDK6/CyclinD3, 300 μM ATP), 10 to 100 nM; in test [3] (CDK2/CyclinE1, 100 μM ATP), 10 to 100 nM; in test [4] (CDK4/CyclinD1, 200 μM ATP), less than 10 nM.

`COc1nc(-c2ccnc(Nc3ccc4c(n3)CCN(C(=O)CN(C)C)C4)n2)cc2c1ncn2C(C)C` [Synthetic Example 140]: the IC50 in test [1] was less than 100 nM; in test [2] (CDK6/CyclinD3, 300 μM ATP) it was 10 to 100 nM; in test [3] (CDK2/CyclinE1, 100 μM ATP) it was greater than 1000 nM; in test [4] (CDK4/CyclinD1, 200 μM ATP), less than 10 nM.

For `CC(C)c1cnn2c(C#N)cc(-c3ccnc(Nc4ccc(N5CCNCC5=O)cn4)n3)cc12` [compound 38], the IC50 in test [1] is 500 to 1000 nM; in test [3] (CDK2/CyclinE1, 100 μM ATP), greater than 1000 nM; in test [4] (CDK4/CyclinD1, 200 μM ATP), 10 to 100 nM; in test [5] it was greater than 1000 nM.

As to `COc1nc(-c2ccnc(Nc3ccc(N4CCOCC4)cn3)n2)cc2c1ncn2C(C)C` [compound 66], the IC50 in test [1] was 100 to 500 nM; in test [3] (CDK2/CyclinE1) it was greater than 1000 nM; in test [4] (CDK4/CyclinD1) it was less than 10 nM; in test [5], 100 to 500 nM.

As to `COc1nc(-c2ccnc(Nc3ccc(CN4CCC(F)(F)C4)cn3)n2)cc2c1ncn2C(C)C` [compound 69], the IC50 in test [1] is 100 to 500 nM; in test [3] (CDK2/CyclinE1), greater than 1000 nM; in test [4] (CDK4/CyclinD1), 10 to 100 nM; in test [5] it was 100 to 500 nM.

Turning to `COc1nc(-c2ccnc(Nc3ccc(CN4CCOCC4)cn3)n2)cc2c1ncn2C(C)C` [compound 81], the IC50 is 100 to 500 nM in test [1], greater than 1000 nM in test [3] (CDK2/CyclinE1), 10 to 100 nM in test [4] (CDK4/CyclinD1) and 100 to 500 nM in test [5].

On to `COc1nc(-c2nc(Nc3ccc(N4CCCC4=O)cn3)ncc2F)cc2c1nc(C)n2C(C)C` [compound 82], for which the IC50 in test [1] is 100 to 500 nM; in test [3] (CDK2/CyclinE1) it was 100 to 1000 nM; in test [4] (CDK4/CyclinD1) it was 10 to 100 nM; in test [5], 100 to 500 nM.

As to `COc1nc(-c2ccnc(Nc3ccc(N4CCOC(C)(C)C4)cn3)n2)cc2c1ncn2C(C)C` [compound 88], the IC50 was 100 to 500 nM in test [1], greater than 1000 nM in test [3] (CDK2/CyclinE1), 10 to 100 nM in test [4] (CDK4/CyclinD1) and 100 to 500 nM in test [5].

With `COc1nc(-c2ccnc(Nc3ccc(N4CCOC(C)C4)cn3)n2)cc2c1ncn2C(C)C` (centres unmarked) [compound 96], the IC50 in test [1] is 100 to 500 nM; in test [3] (CDK2/CyclinE1), greater than 1000 nM; in test [4] (CDK4/CyclinD1) it was 10 to 100 nM; in test [5] it was 100 to 500 nM.

Turning to `COc1nc(-c2ccnc(Nc3ccc(N4CCC(N5CCOCC5)CC4=O)cn3)n2)cc2c1ncn2C(C)C` (centres unmarked) [compound 100], the IC50 in test [1] is 100 to 500 nM; in test [2] (CDK6/CyclinD3) it was 10 to 100 nM; in test [3] (CDK2/CyclinE1) it was 100 to 1000 nM; in test [4] (CDK4/CyclinD1), less than 10 nM.

Turning to `COc1nc(-c2ccnc(Nc3ccc(N4CC5CC4CO5)cn3)n2)cc2c1ncn2C(C)C` (centres unmarked) [compound 104], the IC50 in test [1] was 100 to 500 nM; in test [3] (CDK2/CyclinE1), greater than 1000 nM; in test [4] (CDK4/CyclinD1), 10 to 100 nM; in test [5], 100 to 500 nM.

For `COc1nc(-c2ccnc(Nc3ccc(N4CCNCC4=O)cc3F)n2)cc2c1ncn2C(C)C` [compound 114], the IC50 in test [1] is 100 to 500 nM; in test [2] (CDK6/CyclinD3, 300 μM ATP), 10 to 100 nM; in test [3] (CDK2/CyclinE1, 100 μM ATP), 10 to 100 nM; in test [4] (CDK4/CyclinD1, 200 μM ATP) it was less than 10 nM.

In the case of `COc1nc(-c2ccnc(Nc3ccc(N4CCNCC4=O)nc3)n2)cc2c1ncn2C(C)C` [compound 119], the IC50 in test [1] is 100 to 500 nM; in test [2] (CDK6/CyclinD3, 300 μM ATP), 10 to 100 nM; in test [3] (CDK2/CyclinE1, 100 μM ATP) it was 10 to 100 nM; in test [4] (CDK4/CyclinD1, 200 μM ATP), less than 10 nM.

Regarding `COc1nc(-c2ccnc(Nc3ccc(N4CCN(C5COC5)CC4)cn3)n2)cc2c1ncn2C(C)C` [compound 130], the IC50 in test [1] is 100 to 500 nM; in test [3] (CDK2/CyclinE1, 100 μM ATP), greater than 1000 nM; in test [4] (CDK4/CyclinD1, 200 μM ATP), less than 10 nM; in test [5], 100 to 500 nM.

For the origin of these results see patent US20220296595A1, “CDK INHIBITORS” (QILU REGOR THERAPEUTICS INC., priority 2019, published 2022).
